The text below walks through data of a melting point compilation (Tetko et al.; mined from patent text by program, amines drawn as free bases though some values may be those of a salt).

Some results are limits rather than exact numbers.

Regarding `CCc1cccc2nc(N[C@@H](CC(C)C)C(=O)OC)oc(=O)c12`, the melting point – broadly, the temperature of the solid-liquid transition – was 74 to 76 °C.
The value for `COc1cc(C)c(C(C)O)cc1NC(=S)N1CCN(c2cc(Cl)cc(Cl)c2)CC1` (configuration not stated) was 166 to 168 °C.
`NS(=O)(=O)c1cccc(NC(=O)c2cnn3c(C(F)F)cc(-c4ccc(C(F)(F)F)cc4)nc23)c1` gave a melting point of 258 °C.
With `CCCCCCC(=S)SCCCC`, the melting point was in the range of 46 to 47 °C.
As for `CC(C)(Oc1ccc(Cl)cc1)C(=O)NCCCn1ccnc1`, the melting point fell in the range of 83 to 84 °C.
The compound `COc1ccc(C(C)=Cc2ccc3ccccc3c2)cc1` yielded a melting point of 141 °C.
The value for `COc1ccc(-c2nc(C)c(NC(=O)c3nnn[nH]3)s2)cc1` was 205 to 207 °C; that for `O=C1C(=O)c2ccccc2C2=C1SCC1(CCN(CCCOc3ccccc3)CC1)O2` was 127 to 129 °C; that for `CCCn1c(=O)c2[nH]c(/C=C/c3ccccc3)nc2n(CCC)c1=O` was 259 to 261 °C.
Compound `COc1ccc(CNc2cc(C(c3cc(F)ccc3F)S(=O)(=O)c3ccc(F)cc3)c(Cl)cn2)cc1OC` (configuration not stated) displayed a melting point of 158 to 159 °C.
With `CCOC(=O)C1CC2C(=O)N=C(C(C)C)C=C2S1=N` (configuration not stated), the melting point lay within 182 to 183 °C.
`O=C1CCC(=O)N1c1nc(Nc2ccc(O)c(Cl)c2)cc(-c2ccccc2)n1` displayed a melting point of 274 to 276 °C.
The value for `O=C(Nc1ccc(Cl)nc1)c1cc2cc(F)ccc2n1Cc1ccncc1` was 244 to 246 °C; that for `O=c1c(-c2cc(=O)c3c(O)cccc3o2)cn(-c2ccccc2)c2ccccc12` was greater than 300 °C; that for `Cc1cc2cc(CN3CCC(CCC(=O)N(C)C)CC3)cnc2cc1NC(=O)c1ccc(-c2ccc(F)cc2)cc1` was 193 to 196 °C.
Compound `COc1ccc(-c2c(Cl)c(CNS(=O)(=O)c3ccccc3)nc3sc4c(c23)CCN(Cc2ccccc2)C4)cc1OC` yielded a melting point of 153 to 154 °C.
`COc1cccc(NC(SC)=C(C#N)S(=O)(=O)C(C)C)c1`: the melting point lay in the range of 107 to 110 °C.
`CCCCc1oc2ccccc2c1C(=O)NCc1ccc2c(-c3ccc(C(C)(C)C)cc3)c(O)ccc2c1` gave a melting point of 195 to 197 °C.
In turn, `CCN(CC)S(=O)(=O)c1ccc(Oc2ccc([N+](=O)[O-])cc2C#N)cc1` gave a melting point of 163 to 164 °C.
With `FC(F)(F)c1nc(Cl)c2cc(I)ccc2n1` the figure was 145 to 146 °C; with `O=C(NCCCCC(NC(=O)OCc1ccccc1)C(=O)NC1OC(C(=O)O)CC1O)OCc1ccccc1` (configuration not stated), 86 to 100 °C; with `CNC(=O)Nc1snc(SC)c1C#N`, 286 °C.
With `CC(C)(Br)C1CC(=O)OC1OCc1cccc(Oc2ccccc2)c1` (configuration not stated) the figure was 60 °C; with `S=C1NC2(CCCCC2)NC12CCCCC2`, 229 °C.
The value for `C[C@H](NC(=O)OC(C)(C)C)C(=O)OC[C@@H]1CCCN1c1cccc2c1C(=O)c1ccccc1C2=O` was 110 °C; that for `COc1c(Cl)ccc(-c2nc(C(=O)OCc3ccccc3)c(Cl)c(N)c2F)c1F` was 132 to 133 °C; that for `COc1ccc(Nc2ncnc3occ(C)c23)cc1` was 99 to 102 °C.
Turning to `O=C(NCc1ccc(Cl)cc1)c1nn(-c2ccccc2)c2sc(CN3CCOCC3)cc2c1=O`, the melting point lay in the range of 182 to 184 °C.
`O=C(O)COCC(=O)CCCCCCCCCC(=O)NONC(=O)O`: the melting point was 64 to 67 °C.
`O=C(Nc1ccc(C2=NOC(c3cc(Cl)cc(Cl)c3)(C(F)(F)F)C2)cc1)C(F)(F)F` (configuration not stated) came in with a melting point of 45 to 52 °C.
The value for `COc1ccccc1CC(=O)N1C[C@H]2C[C@H](CO)C[C@](O)(c3ccccc3OC)[C@H]2C1` (racemic) was 162 °C; that for `O=C(CO)c1ccc(Cl)c(Cl)c1` was 115 to 118 °C.
Compound `O=C1C(=O)N(c2ccc(Cl)cc2[N+](=O)[O-])C(=O)N1c1cccc(Cl)c1` had a melting point of 133 °C.
The compound `O=C(SSCCSSC(=O)N1CCOCC1)N1CCOCC1` showed a melting point of 178 to 179 °C.
With `CCNC(=O)Nc1c(C(=O)c2ccccc2)[nH]c2cc(Cl)ccc12` the figure was 222 to 235 °C.
In turn, `CN1C(=O)[C@@H](N)[C@@H]1c1ccccc1` (relative stereo) returned a melting point of 51.5 °C.
With `COc1ccnc(CCc2nc3cc(-c4ccc(S(=O)(=O)N5CCc6cc(OC)c(OC)cc6C5)cc4)cnc3[nH]2)c1` the figure was 207 to 208 °C; with `N#Cc1cnn2c1N(C(=O)CCl)CCC2c1cccc(C(F)(F)F)c1` (configuration not stated), 157 to 159 °C; with `CCOC(=O)N1CCN(C2=Nc3ccccc3Sc3ccc(Cl)cc32)CC1`, 96.5 to 97.5 °C.
With `COc1ccc(C(=O)O)c2c1oc1ccccc12`, the melting point is 280 °C.
The compound `CCOC(=O)c1ccc(CN(C(C)=O)C(=O)OC(C)(C)C)cc1` returned a melting point of 96 to 97 °C.
The compound `CC(=O)n1nc(N2CCN(C)CC2)c2ccccc21` returned a melting point of 106 to 108 °C.
Regarding `CCOC(=O)C(=O)c1ccccc1C(=O)c1ccc(Cl)cc1`, the melting point lay within 79 to 81 °C.
The compound `O=C(NC(C(=O)O)C1CC(Cl)=NO1)OCC1c2ccccc2-c2ccccc21` (configuration not stated) had a melting point of 175 to 176 °C.
Regarding `COCc1c[nH]c2c([N+](=O)[O-])cc(C)cc2c1=O`, the melting point is greater than 240 °C.
The value for `CC(C)c1ccc2c(c1)C=C(/C=C/C=C/C=C/C(=O)O)CO2` was 244 to 246 °C.
`CCOC(=O)c1nnc2ccc(C#N)cc2c1O` displayed a melting point of 259 to 261 °C.
The value for `Cc1cccc(C(=O)Nc2ccc(N3CCN(Cc4cccc(C#N)c4)CC3)cc2)c1-c1ccc(C(C)C)cc1` was 137 °C; that for `Cc1c(CN2CCc3c(c4cccc(Br)c4n3C)C2=O)ncn1S(=O)(=O)N(C)C` was 182 to 185 °C; that for `CCOP(=O)(Cc1ccc(NC(=O)Cc2cnoc2-c2ccccc2)cc1)OCC` was 132 to 133 °C.
With `CCCCC[C@H]1CC[C@H](c2ncc(O)cn2)CC1`, the melting point was in the range of 190 to 191 °C.
Regarding `C#CCSc1ncn(C(=O)N(CC)CC)n1`, the melting point is 67 to 69 °C.
The value for `Cc1oc(-c2ccccc2)nc1COc1ccc2cc(/C=C/C=O)oc2c1` was 132 to 133 °C; that for `NC(=O)CC(O)CCCCCNC(=O)OCc1ccccc1` (configuration not stated) was 100 to 101 °C.
With `CN(C)Cc1sc(C(c2ccc(Cl)cc2)c2c(Cl)cc(-n3ncc(=O)[nH]c3=O)cc2Cl)nc1-c1ccccc1F` (configuration not stated) the figure was 250 °C; with `COc1cc(Cl)cc2c1CCC2`, 38 to 40 °C; with `COc1cc2ncnc(N3CCC(O)(CCN4C=CC(C)=NS4(=O)=O)CC3)c2cc1OC`, 203 to 204 °C.
Regarding `COc1cc(C)ccc1S(=O)(=O)NC(=O)C(c1ccc2c(c1)OCO2)c1cn(C)c2cc(C(=O)O)ccc12` (configuration not stated), the melting point stood at 199 °C.
As for `O=[N+]([O-])c1ccc(CO)c(Nc2nccc(-c3cccnc3)n2)c1`, the melting point lay in the range of 247 to 250 °C.
The value for `CCOC(=O)Cc1ccc(Cc2nc3n(-c4c(Cl)cccc4Cl)[nH]c(C(C)C)c-3c(=O)n2)cc1` was 168 to 169 °C; that for `Cc1nc(-c2ccc(-c3cc(C(F)(F)F)nn3-c3ccc(S(C)(=O)=O)c(F)c3)cc2)cs1` was 139 to 141 °C; that for `CCOC(=O)c1sc(NC(=O)NN)nc1C` was 225 to 230 °C.
On to `CCOc1ccc(C(Cl)=NOS(C)(=O)=O)cc1`, for which the melting point lay in the range of 93 to 95.5 °C.
The value for `COc1ccc(C(=C(C)P(c2ccccc2)c2ccccc2)c2ccc(OC)cc2)cc1` was 123 to 125 °C; that for `Cc1noc(NS(=O)(=O)c2cc(Cl)c(Cl)cc2Cl)c1Br` was 179 to 182 °C.
With `O=C1CC(c2cccc(-c3ocnc3C(=O)NCCO)c2)=Nc2ccc(-n3cccc3)cc2N1` the figure was 228 to 230 °C; with `O=C(O)c1cc2c3ccccc3n(-c3ccccc3)c2s1`, 206 to 207 °C.
With `O=NSC1(C2OCCO2)CCCCC1` the figure was 37 to 39 °C; with `CSc1cc2n(c1C(=O)c1ccc(Cl)cc1)CCC2C(=O)O` (configuration not stated), 200 to 201 °C; with `OCc1cccc2cccnc12`, 74 to 75 °C.
As to `O=C(COc1ccc(C(=O)C=CC(=O)N2CCCCC2)c(O)c1)Nc1nc2ccccc2s1`, the melting point fell in the range of 207 to 210 °C.
With `CSc1onc(-c2ccccc2)c1-c1ccccc1` the figure was 83 to 86 °C.
The value for `COc1cc(C(=O)N2CCN(C(=O)c3cc(OC)c(OC)c(OC)c3)C(CNC(=O)OC(C)C)C2)cc(OC)c1OC` (configuration not stated) was 140 °C; that for `COC(=O)c1ccc(NC(=O)NCCCl)cc1` was 163 to 165 °C; that for `CC1(C)Cc2c(CO)c(O)c3c(c2C(c2ccccc2)=N1)CC(C)(C)O3` was 210 to 230 °C.
The value for `COC(=O)c1ccc(OCC2CC(=O)N(c3ccc(N)cc3)C2)cc1` (configuration not stated) was 136 to 138 °C.
As to `CCn1cc(C(=O)O)c(=O)c2c(F)c(F)c(N3CCNC(C)C3)c(F)c21` (configuration not stated), the melting point was in the range of 220 to 222 °C.
The compound `COc1ccc(N)c(OCC(N)=O)c1` had a melting point of 139 to 140 °C.
With `CCOc1c(C)c(N2CCN(c3ccc(F)cc3)CC2)c(C)c2c1OC(C)(C)C2` the figure was 163 to 165 °C.
The value for `CC[C@H](N)c1nc2c(C(F)(F)F)cccc2c(O)c1C(=O)Nc1nccs1` was 206 °C.
Regarding `O=C(CS(=O)(=O)C(c1ccc(Cl)cc1)c1ccc(Cl)cc1)c1cccs1`, the melting point lay in the range of 150 to 151 °C.
As to `CNC(=O)c1ccccc1Nc1nc(Nc2cc3c(cc2OC)CCN(CCOC)CC3)ncc1Br`, the melting point lay within 171 to 175 °C.
The value for `CCOC(=O)c1cn(CC)c2nc(N3CCNCC3)c(F)cc2c1=O` was 150 to 151 °C; that for `c1cnn(Cc2ccc3c(c2)-c2[nH]nc(-c4ccsc4)c2C3)n1` was 217 to 219 °C; that for `Cc1ccc(C=Nc2c(-c3ccccc3C)nc3c4ccccc4ccn23)cc1` was 160 °C.
For the compound `CCOC(=O)CC(O)Cc1ccc([N+](=O)[O-])cc1` (configuration not stated), the melting point was in the range of 71 to 72 °C.
As for `O=C(O)[C@@H]1CSC(c2ccccc2O)N1C(=O)CCBr` (some centres not stated), the melting point fell in the range of 109 to 115 °C.
